# Legend:
# [1] = tested on: air pouch model of inflammation, C57BL/6 mice; assay: murine air pouch model of inflammation (LPS induction); format: in vivo, mouse
# Description: This example provides the results of investigating DA to modulate immune response in a murine air pouch model of inflammation. Eight C57BL/6 mice were assigned to groups for gavage treatment (BID) of controls (distilled water), DA at a dose of 23.1 mg/kg BID (low dose DA), and DA at a dose of 96.4 mg/kg BID (high dose DA). What was measured was infiltrating cell counts with air pouch exudates, IL-6 levels in air pouch exudates by an ELISA assay (R&D Systems Cat. No. M6000B), and multiple cytokine analysis (Mouse 32Plex Kit MilliporeSigma Cat. No. MCYTMAG70PMX32BK). Statistical analysis was done by a one-way ANOVA followed by Tukey's multiple comparison post hoc test for data with normal distribution, Kruskal-Wallis test followed by Dunn's multiple comparison post hoc test for data with skewed distribution, and the ROUT method for identifying outliers.
# Duarte et al., Current Protocols in Pharmacology, 5.6.1-5.6.8 Mar. 2012, describes “The subcutaneous air pouch is an in vivo model that can be used to study acute and chronic inflammation, the resolution of the inflammatory response, and the oxidative stress response. Injection of irritants into an air pouch in rats or mice induces an inflammatory response that can be quantified by the volume of exudate produced, the infiltration of cells, and the release of inflammatory mediators. The model presented in this unit has been extensively used to identify potential anti-inflammatory drugs.” It can be used to study localized inflammation without systemic effects. But in this case the drug was administered orally, by gavage BID.
# Test administration was 5 ml/kg body weight BID dosing with 8 hour intervals. The air pouch was created in each test BL6 mouse by sc injection of 1.5 ml/mouse of sterile air on day 0 and 1.5 ml/mouse of sterile air on day 3. Compounds (or control distilled water) were administered BID on day −2. LPS (0.75 mg/animal in 1 ml endotoxin free PBS) was administered at hour 0 or one hour after dosing with test compounds. Plasma samples were collected at termination and exudates of the air pouches for all groups. Cell count analysis and IL-6 assays were conducted at the animal facility and plasma and exudate samples were sent out for cytokine analysis. Each group of distilled water control, 23.1 mg/kg DA and 92.4 mg/kg DA had 8 mice each.
# [2] = tested on: microbial populations in fecal samples; assay: microbiome study in NASH mouse model (AMLN diet), 4 weeks; format: in vivo
# Description: There were changes in the microbiome in a mice model using a high-fat diet after 4 weeks of treatment with and without administering DA orally. The high fat diet itself induced extensive changes in the microbial populations in all groups. Importantly though, there was a pronounced difference between the DA treatment group and the control group at week 4.
# The effect of a small molecule oral TAS2R agonist (DA) was investigated on microbial populations in a nonalcoholic steatohepatitis (NASH) mouse model. Two groups of 4-week-old male C57BL/6 mice (20/group) were fed Amylin Liver NASH (AMLN) diet and received daily doses of ARD-101 (30 mg/mL in water) or vehicle (water) via intragastric gavage. DNA was isolated from fecal samples collected at week 0 and 4, and microbial ecology was evaluated using bTEFAP (bacterial tag-encoded FLX amplicon pyrosequencing). Operational taxonomic units were classified using BLAST against a curated NCBI database. Diversity within specific ecosystems and microbial community structures was analyzed with Qiime 2. Differences were determined by repeated measures ANOVA and post hoc pairwise comparisons using Tukey's test. Taxonomic classification data were evaluated with a dual hierarchal dendrogram.
# [3] = 4-week DA treatment, genetic potential of microbiome
# [4] = treatment at 4 weeks versus baseline and control
# [5] = week 4, DA group versus vehicle group, AMLN diet
structure (smiles),measurement,setting,value
"CC(=O)[O-].CC[N+](CC)(CC(=O)Nc1c(C)cccc1C)Cc1ccccc1 [DA, denatonium acetate]",IL-1β level,[1]; higher dose of DA,significant reduction
same,IL-10 level,[1]; higher dose of DA,significant reduction
same,IL-17 level,[1]; higher dose of DA,significant reduction
same,TNF-1α level,[1]; higher dose of DA,significant reduction
same,IL-6 levels in air pouch exudates,"[1]; pre-treated with DA at 96.4 mg/kg BID gavage, ELISA, vs vehicle and lower dose",significantly lower
same,infiltrating cell count in air pouch exudates,"[1]; pre-treated with DA at 96.4 mg/kg BID gavage, vs vehicle and lower dose",significantly lower
same,arginine and ornithine metabolism,[2]; [3],significantly decreased signaling
same,pathways for biosynthesis of unsaturated fatty acids,[2]; [3],significant enrichment
same,pathways for glycolysis and gluconeogenesis,[2]; [3],significant enrichment
same,pathways for lysine degradation,[2]; [3],significant enrichment
same,pathways for metabolism of arachidonic acid,[2]; [3],significant enrichment
same,pathways for metabolism of cofactors and vitamins,[2]; [3],significant enrichment
same,phosphatidylinositol signaling,[2]; [3],significant enrichment
same,SCFAs in feces,"[2]; AMLN diet, DA treatment",mitigated the diet-induced decrease
same,diversity within ecosystems and microbial communities,"[2]; DA versus vehicle group at week 4, p<0.05",significantly less diversity
same,"genus: Lachnoclostridium, Barnesiella, Clostridium, Oscillospira, Dorea, candidatus soleaferrea, Dehalobacterium, Oscillibacter, Flavonifractor",[2]; [4],Significantly Decreased
same,"genus: Parabacteroides, Escherichia, Erysipelatoclostridium, Peptoclostridium, Sutterella, Shigella, Brenneria",[2]; [4],Significantly Increased
same,Cyanobacteria (phylum level),[2]; [5],significant increases
same,Deferribacteres (phylum level),[2]; [5],significant decreases
same,Firmicutes (phylum level),[2]; [5],significant decreases
same,Proteobacteria (phylum level),[2]; [5],significant increases
same,Spirochetes (phylum level),[2]; [5],significant decreases
same,Verrucomicrobia (phylum level),[2]; [5],significant increases
same,Bacteroidetes (phylum level),"[2]; week 4, not marked significant",decreased

# — patent publication US20220193013A1, “Pharmaceutical Composition for Treatment or Prevention of Multiple Inflammatory Disorders” (priority 2020, published 2022)
